{"source": "patent US7803903B2", "about": "“Protein-binding doxorubicin peptide derivatives” (priority 2003, dated 2010)", "test_system": "A375 melanoma xenografts", "test": "tumor growth of subcutaneously growing A375 melanoma xenografts", "assay_type": "in vivo, nacked mice", "settings": "i.v.; doxorubicin 2×8 mg/kg on days 8 and 15; FIG. 5", "method": "Animals: nacked mice; stock solution of doxorubicin (2 mg/ml); stock solution of 1:6 mg/ml in 10 mM sodium phosphate, 5% D-glucose (pH 6.4), control (buffer): glucose phosphate buffer (10 mM sodium phosphate, 5% D-glucose—pH 6.4) on days 8 and 15.", "data": [{"compound": "COc1cccc2c1C(=O)c1c(O)c3c(c(O)c1C2=O)C[C@@](O)(C(=O)CO)C[C@@H]3O[C@H]1C[C@H](N)[C@H](O)[C@H](C)O1", "note": "[Doxorubicin, doxorubicin]", "values": [{"measurement": "relative tumor volume compared to treatment with the derivative according to the invention", "value": "approximately three times larger tumor volume"}]}]}
